[ ]: non-standard residue; d: D form.
Test system: primary murine T-cells
Test: Cytokine secretion on protein level in activated primary murine T-cells (13-plex FACS / Luminex, supernatant)
Assay type: cell-based, C57BL/6 mice
Outline: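 T-cells from secondary lymphatic organs of naïve C57BL/6 mice, stimulated with PMA/Ionomycin or IFN-γ; supernatant cytokines measured by 13-plex FACS 48 h and 72 h after stimulation. In another run, PMA/Ionomycin-stimulated cells received compounds at 10^−7, 10^−9 and 10^−11 M, with IFN-γ, IL-17 and IL-10 measured by Luminex.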

[1] = primary murine T-cells stimulated with IFN-γ, 10^−9M
[2] = primary murine T-cells stimulated with IFN-γ, substance 10^−9M
[3] = primary murine T-cells stimulated with PBS, 10^−9M
[4] = primary murine T-cells stimulated with PBS, substance 10^−9M
[5] = primary murine T-cells stimulated with PMA/Ionomycin, 10^−9M
[6] = primary murine T-cells stimulated with PMA/Ionomycin, 10^−9M, 1:10 dilution of the supernatants
[7] = primary murine T-cells stimulated with PMA/Ionomycin, substance 10^−9M

Work on “H-Lys-[dP]-Thr-OH [K(D)PT, reference compound]” yielded an IL-1 cytokine concentration [1] of 26.6 pg/mL, an IL-2 cytokine concentration [1] of 0 pg/mL and an IL-4 cytokine concentration [1] of 0 pg/mL. For the same substance, the IL-5 cytokine concentration [1] was 0 pg/mL, the IL-6 cytokine concentration [1] was 0 pg/mL and the IL-10 cytokine concentration [1] was 0 pg/mL. For the same substance, the IL-13 cytokine concentration [1] was 0 pg/mL, the IL-17 cytokine concentration [1] was 0 pg/mL and the IL-21 cytokine concentration [1] was 0 pg/mL. For the same substance, the IL-22 cytokine concentration [1] was 0 pg/mL, the IL-27 cytokine concentration [1] was 209.12 pg/mL and the TNF-α cytokine concentration [1] was 0 pg/mL. It also gave an IL-1 cytokine concentration [2] of 93.77 pg/mL, an IL-2 cytokine concentration [2] of 98.22 pg/mL and an IL-4 cytokine concentration [2] of 85.32 pg/mL. The IL-5 cytokine concentration [2] was 271.81 pg/mL, the IL-6 cytokine concentration [2] was 144.97 pg/mL and the IL-10 cytokine concentration [2] was 1061 pg/mL. It also gave an IL-13 cytokine concentration [2] of 0 pg/mL, an IL-17 cytokine concentration [2] of 88.84 pg/mL and an IL-21 cytokine concentration [2] of 0 pg/mL. It also gave an IL-22 cytokine concentration [2] of 48.13 pg/mL, an IL-27 cytokine concentration [2] of 0 pg/mL and a TNF-α cytokine concentration [2] of 34.84 pg/mL. The IFN-γ cytokine concentration [3] was 0 pg/mL, the IL-1 cytokine concentration [3] was 0 pg/mL and the IL-2 cytokine concentration [3] was 0 pg/mL. The IL-4 cytokine concentration [3] was 0 pg/mL, the IL-5 cytokine concentration [3] was 0 pg/mL and the IL-6 cytokine concentration [3] was 27.81 pg/mL. The IL-10 cytokine concentration [3] was 64.53 pg/mL, the IL-13 cytokine concentration [3] was 0 pg/mL and the IL-17 cytokine concentration [3] was 16.26 pg/mL. For the same substance, the IL-21 cytokine concentration [3] was 0 pg/mL, the IL-22 cytokine concentration [3] was 0 pg/mL and the IL-27 cytokine concentration [3] was 25.93 pg/mL. It also gave a TNF-α cytokine concentration [3] of 0 pg/mL, an IFN-γ cytokine concentration [4] of 0 pg/mL and an IL-1 cytokine concentration [4] of 60.41 pg/mL. For the same substance, the IL-2 cytokine concentration [4] was 124.13 pg/mL, the IL-4 cytokine concentration [4] was 71.69 pg/mL and the IL-5 cytokine concentration [4] was 373.93 pg/mL. For the same substance, the IL-6 cytokine concentration [4] was 124 pg/mL, the IL-10 cytokine concentration [4] was 1039.39 pg/mL and the IL-13 cytokine concentration [4] was 0 pg/mL. The IL-17 cytokine concentration [4] was 0 pg/mL, the IL-21 cytokine concentration [4] was 0 pg/mL and the IL-22 cytokine concentration [4] was 78.32 pg/mL. For the same substance, the IL-27 cytokine concentration [4] was 87.48 pg/mL, the TNF-α cytokine concentration [4] was 77.74 pg/mL and the IL-1 cytokine concentration [5] was 30.27 pg/mL. For the same substance, the IL-4 cytokine concentration [5] was 71.79 pg/mL, the IL-5 cytokine concentration [5] was 280.87 pg/mL and the IL-6 cytokine concentration [5] was 140.97 pg/mL. It also gave an IL-10 cytokine concentration [5] of 188.56 pg/mL, an IL-13 cytokine concentration [5] of 4314.15 pg/mL and an IL-17 cytokine concentration [5] of 423.67 pg/mL. It also gave an IL-21 cytokine concentration [5] of 0 pg/mL, an IL-22 cytokine concentration [5] of 333.4 pg/mL and an IL-27 cytokine concentration [5] of 99.7 pg/mL. The TNF-α cytokine concentration [5] was 515.54 pg/mL, the “IFN-γ* cytokine concentration” value [6] was 712.81 pg/mL and the “IL-2* cytokine concentration” value [6] was 1288.92 pg/mL. The IFN-γ cytokine concentration [7] was 2117.29 pg/mL, the IL-1 cytokine concentration [7] was 175.59 pg/mL and the IL-2 cytokine concentration [7] was 152.69 pg/mL. For the same substance, the IL-4 cytokine concentration [7] was 72.07 pg/mL, the IL-5 cytokine concentration [7] was 238.08 pg/mL and the IL-6 cytokine concentration [7] was 201.87 pg/mL. It also gave an IL-10 cytokine concentration [7] of 1133.29 pg/mL, an IL-13 cytokine concentration [7] of 0 pg/mL and an IL-17 cytokine concentration [7] of 70.93 pg/mL. For the same substance, the IL-21 cytokine concentration [7] was 0 pg/mL, the IL-22 cytokine concentration [7] was 90.3 pg/mL and the IL-27 cytokine concentration [7] was 126.71 pg/mL. It also gave a TNF-α cytokine concentration [7] of 49.63 pg/mL.

Reference: US10954269B2, “Anti-inflammatory tripeptides” (Dr. August Wolff Gmbh & Co. KG Arzneimittel, priority 2013, dated 2021)
